Reference: the NIST ThermoML archive (doi:10.1016/j.jct.2015.02.024)
± gives the expanded uncertainty stated by the source.

Assay: activity coefficient (dimensionless); of the first substance listed, at infinite dilution; xn = mol fraction of the nth substance listed
Settings: 101 kPa, Liquid, Chromatography, x1 = 0

| Compound | activity coefficient (318.15 K) | activity coefficient (328.15 K) | activity coefficient (338.15 K) | activity coefficient (348.15 K) | activity coefficient (358.15 K) | activity coefficient (368.15 K) | activity coefficient (298.15 K) | activity coefficient (308.15 K) |
| --- | --- | --- | --- | --- | --- | --- | --- | --- |
| CCC(C)O (configuration not stated) [butan-2-ol] + C[N+]1(CCCO)CCOCC1.O=S(=O)([N-]S(=O)(=O)C(F)(F)F)C(F)(F)F | 2.59 ± 0.18 | 2.52 ± 0.17 | 2.46 ± 0.17 | 2.4 ± 0.16 | 2.34 ± 0.16 | 2.29 ± 0.16 |  |  |
| CCCC=O [butanal] + C[N+]1(CCCO)CCOCC1.O=S(=O)([N-]S(=O)(=O)C(F)(F)F)C(F)(F)F | 1.37 ± 0.09 | 1.4 ± 0.09 | 1.43 ± 0.09 | 1.45 ± 0.1 | 1.48 ± 0.1 | 1.5 ± 0.1 |  |  |
| C1CCCCCC1 [cycloheptane] + C[N+]1(CCCO)CCOCC1.O=S(=O)([N-]S(=O)(=O)C(F)(F)F)C(F)(F)F | 82.8 ± 5.7 | 71 ± 4.9 | 62.6 ± 4.3 | 54.5 ± 3.7 | 47.2 ± 3.2 | 43 ± 2.9 |  |  |
| C1CCCCC1 [cyclohexane] + C[N+]1(CCCO)CCOCC1.O=S(=O)([N-]S(=O)(=O)C(F)(F)F)C(F)(F)F | 66 ± 4.5 | 55.7 ± 3.8 | 48.3 ± 3.3 | 42.2 ± 2.9 | 36.3 ± 2.5 | 32.2 ± 2.2 |  |  |
| C1=CCCCC1 [cyclohexene] + C[N+]1(CCCO)CCOCC1.O=S(=O)([N-]S(=O)(=O)C(F)(F)F)C(F)(F)F | 23.7 ± 1.6 | 21.6 ± 1.5 | 20.2 ± 1.4 | 18.6 ± 1.3 | 17.1 ± 1.2 | 16.2 ± 1.1 |  |  |
| C1CCCCCCC1 [cyclooctane] + C[N+]1(CCCO)CCOCC1.O=S(=O)([N-]S(=O)(=O)C(F)(F)F)C(F)(F)F | 110 ± 8 | 93.7 ± 6.4 | 83.6 ± 5.7 | 71.9 ± 4.9 | 64.4 ± 4.4 | 58.6 ± 4 |  |  |
| C1CCCC1 [cyclopentane] + C[N+]1(CCCO)CCOCC1.O=S(=O)([N-]S(=O)(=O)C(F)(F)F)C(F)(F)F | 41 ± 2.8 | 34.7 ± 2.4 | 30.6 ± 2.1 | 27.2 ± 1.9 | 23.5 ± 1.6 | 21.4 ± 1.5 |  |  |
| CCCCCCCCCC [decane] + C[N+]1(CCCO)CCOCC1.O=S(=O)([N-]S(=O)(=O)C(F)(F)F)C(F)(F)F | 624 ± 43 | 543 ± 37 | 479 ± 33 | 419 ± 29 | 363 ± 25 | 328 ± 23 |  |  |
| CCOCC [diethyl ether] + C[N+]1(CCCO)CCOCC1.O=S(=O)([N-]S(=O)(=O)C(F)(F)F)C(F)(F)F | 4.94 ± 0.34 | 5 ± 0.34 | 5.05 ± 0.34 | 5.1 ± 0.35 | 5.14 ± 0.35 | 5.19 ± 0.35 |  |  |
| CC(C)OC(C)C [diisopropyl ether] + C[N+]1(CCCO)CCOCC1.O=S(=O)([N-]S(=O)(=O)C(F)(F)F)C(F)(F)F | 17.3 ± 1.2 | 17.1 ± 1.2 | 16.9 ± 1.2 | 16.7 ± 1.1 | 16.5 ± 1.1 | 16.3 ± 1.1 |  |  |
| CCCOCCC [dipropyl ether] + C[N+]1(CCCO)CCOCC1.O=S(=O)([N-]S(=O)(=O)C(F)(F)F)C(F)(F)F | 20.1 ± 1.4 | 19.5 ± 1.3 | 18.9 ± 1.3 | 18.4 ± 1.3 | 17.9 ± 1.2 | 17.4 ± 1.2 |  |  |
| CCO [ethanol] + C[N+]1(CCCO)CCOCC1.O=S(=O)([N-]S(=O)(=O)C(F)(F)F)C(F)(F)F | 1.4 ± 0.09 | 1.37 ± 0.09 | 1.34 ± 0.09 | 1.3 ± 0.08 | 1.28 ± 0.08 | 1.25 ± 0.08 |  |  |
| CCOC(C)=O [ethyl acetate] + C[N+]1(CCCO)CCOCC1.O=S(=O)([N-]S(=O)(=O)C(F)(F)F)C(F)(F)F | 1.5 ± 0.1 | 1.56 ± 0.1 | 1.61 ± 0.11 | 1.66 ± 0.11 | 1.7 ± 0.11 | 1.77 ± 0.12 |  |  |
| CCc1ccccc1 [ethylbenzene] + C[N+]1(CCCO)CCOCC1.O=S(=O)([N-]S(=O)(=O)C(F)(F)F)C(F)(F)F | 7.33 ± 0.5 | 7.28 ± 0.5 | 7.22 ± 0.49 | 7.18 ± 0.49 | 7.13 ± 0.49 | 7.09 ± 0.48 |  |  |
| CCCCCCC [heptane] + C[N+]1(CCCO)CCOCC1.O=S(=O)([N-]S(=O)(=O)C(F)(F)F)C(F)(F)F | 223 ± 15 | 192 ± 13 | 162 ± 11 | 141 ± 10 | 116 ± 8 | 105 ± 7 | 345 ± 24 | 280 ± 19 |
| C=CCCCC [hex-1-ene] + C[N+]1(CCCO)CCOCC1.O=S(=O)([N-]S(=O)(=O)C(F)(F)F)C(F)(F)F | 58.2 ± 4 | 51.7 ± 3.5 | 45.2 ± 3.1 | 40.5 ± 2.8 | 35.9 ± 2.5 |  |  |  |
| CCCCCC [hexane] + C[N+]1(CCCO)CCOCC1.O=S(=O)([N-]S(=O)(=O)C(F)(F)F)C(F)(F)F | 154 ± 11 | 122 ± 8 |  |  |  |  | 267 ± 18 | 201 ± 14 |
| CO [methanol] + C[N+]1(CCCO)CCOCC1.O=S(=O)([N-]S(=O)(=O)C(F)(F)F)C(F)(F)F | 0.945 ± 0.06 | 0.929 ± 0.059 | 0.915 ± 0.058 | 0.899 ± 0.057 | 0.884 ± 0.056 | 0.872 ± 0.056 |  |  |
| CCCC(=O)OC [methyl butanoate] + C[N+]1(CCCO)CCOCC1.O=S(=O)([N-]S(=O)(=O)C(F)(F)F)C(F)(F)F | 2.41 ± 0.16 | 2.48 ± 0.17 | 2.56 ± 0.17 | 2.62 ± 0.18 | 2.68 ± 0.18 | 2.75 ± 0.19 |  |  |
| COC(C)=O [methyl ethanoate] + C[N+]1(CCCO)CCOCC1.O=S(=O)([N-]S(=O)(=O)C(F)(F)F)C(F)(F)F | 0.926 ± 0.059 | 0.971 ± 0.061 | 1.02 ± 0.06 | 1.06 ± 0.07 | 1.1 ± 0.07 | 1.14 ± 0.07 |  |  |
| CCC(=O)OC [methyl propanoate] + C[N+]1(CCCO)CCOCC1.O=S(=O)([N-]S(=O)(=O)C(F)(F)F)C(F)(F)F | 1.45 ± 0.1 | 1.51 ± 0.1 | 1.57 ± 0.1 | 1.63 ± 0.11 | 1.68 ± 0.11 | 1.74 ± 0.12 |  |  |
| CC1CCCCC1 [methylcyclohexane] + C[N+]1(CCCO)CCOCC1.O=S(=O)([N-]S(=O)(=O)C(F)(F)F)C(F)(F)F | 102 ± 7 | 84.7 ± 5.8 | 73.3 ± 5 | 64.4 ± 4.4 | 55 ± 3.8 | 49.1 ± 3.4 |  |  |
| CCCCCCCCC [nonane] + C[N+]1(CCCO)CCOCC1.O=S(=O)([N-]S(=O)(=O)C(F)(F)F)C(F)(F)F | 445 ± 31 | 385 ± 26 | 332 ± 23 | 287 ± 20 | 249 ± 17 | 224 ± 15 |  |  |
